The record followed here is patent publication US5135857A, “Process for the preparation of de-mannosyl teicoplanin derivatives” (Gruppo Lepetit S.p.A., priority 1987, dated 1992).

SMILES strings stand for the structures.

What all share (assay type): cell-based
Assay [1] concerns Staph. epidermidis L147 ATCC 12228 (coagulase negative). Description: MIC broth dilution test, Staph. epidermidis. Particulars: Isosensitest broth, 24 h. The protocol:
(§1) Culture media and growth conditions for MIC (minimal inhibitory concentration) determinations were as follows: Isosensitest broth (Oxoid), 24 h, for staphylococci, Strep. faecalis and Gram-negative bacteria ( Escherichia coli); Todd-Hewitt broth (Difco), 24 h for other streptococcal species; GC base broth (Difco)+1% Isovitalex (BBL), 48 h, CO2 -enriched atmosphere for Neisseria gonorrhoeae; Brain Heart broth (Difco)+1% Supplement C (Difco), 48 h for Haemophilus influenzae; Inocula were of about 10^4 -10^5 colony-forming units/ml for broth dilution MICs.
(In broth dilution the organism is exposed to a series of concentrations in liquid medium.)

A further assay relates to Strep. pyogenes L49 C203. Description: MIC broth dilution test, Strep. pyogenes. Particulars: Todd-Hewitt broth, 24 h. The protocol:
as §1

The subject of assay [2] is Strip. pneumoniae L44 UC41. Description: MIC broth dilution test, Strep. pneumoniae. Particulars: Todd-Hewitt broth, 24 h. The protocol: as §1
The test system of assay [3] is Strep. faecalis L149 ATCC 7080. Description: MIC broth dilution test, Strep. faecalis. Particulars: Isosensitest broth, 24 h. The protocol:
as §1

For assay [4], the system named is Strep. mitis L796 (clinical isolate). Description: MIC broth dilution test, Strep. mitis. Particulars: Todd-Hewitt broth, 24 h. The protocol: as §1
Assay [5] concerns Neisseria gonorrhoeae L997 ISM68/126. Description: MIC broth dilution test, Neisseria gonorrhoeae. Particulars: GC base broth + 1% Isovitalex, 48 h, CO2-enriched atmosphere. The protocol:
as §1

The subject of assay [6] is Haemophilus influenzae L970 type b ATCC 19418. Description: MIC broth dilution test, Haemophilus influenzae. Particulars: Brain Heart broth + 1% Supplement C, 48 h. The protocol: as §1
Assay [7] deals with Staph. haemolyticus L602 (clinical isolate). Description: MIC broth dilution test, Staph. haemolyticus. To be noted: Isosensitest broth, 24 h. The protocol: as §1

`CC(=O)N[C@H]1[C@H](OC2c3ccc(c(Cl)c3)Oc3cc4cc(c3O[C@@H]3O[C@H](CO)[C@@H](O)[C@H](O)[C@H]3NC(=O)CCCCCCC(C)C)Oc3ccc(cc3Cl)CC3NC(=O)C(N)c5ccc(O)c(c5)Oc5cc(O)cc(c5)C(NC3=O)C(=O)NC4C(=O)NC3C(=O)NC2C(=O)NC(C(=O)O)c2cc(O)cc(O)c2-c2cc3ccc2O)O[C@H](CO)[C@@H](O)[C@@H]1O` (stereo partly shown) [DM-TA2-2, de-mannosyl teicoplanin complex component 2]: the M.I.C. stood at 0.063 microgram/ml in assay [1]; 0.063 microgram/ml in the assay on Strep. pyogenes L49 C203; 0.063 microgram/ml in assay [2]; 0.063 microgram/ml in assay [3]; 0.063 microgram/ml in assay [4]; 32 microgram/ml in assay [5]. Moreover, the M.I.C. in assay [6] came to 64 microgram/ml; in assay [7] it was 0.5 microgram/ml.

Turning to `CCCCCCCCCC(=O)N[C@H]1[C@H](Oc2c3cc4cc2Oc2ccc(cc2Cl)C(O[C@@H]2O[C@H](CO)[C@@H](O)[C@H](O)[C@H]2NC(C)=O)C2NC(=O)C(NC(=O)C4NC(=O)C4NC(=O)C(Cc5ccc(c(Cl)c5)O3)NC(=O)C(N)c3ccc(O)c(c3)Oc3cc(O)cc4c3)c3ccc(O)c(c3)-c3c(O)cc(O)cc3C(C(=O)O)NC2=O)O[C@H](CO)[C@@H](O)[C@@H]1O` (stereo partly shown) [DM-TA2-3, de-mannosyl teicoplanin complex component 3], the M.I.C. in assay [1] is recorded as 0.063 microgram/ml; with Strep. pyogenes L49 C203, 0.063 microgram/ml; in assay [2], 0.063 microgram/ml; in assay [3], 0.063 microgram/ml; in assay [4], 0.063 microgram/ml; in assay [5], 32 microgram/ml. Also, the M.I.C. in assay [6] came out at 64 microgram/ml; in assay [7], 0.5 microgram/ml.

As to `CCC(C)CCCCCCC(=O)N[C@H]1[C@H](Oc2c3cc4cc2Oc2ccc(cc2Cl)C(O[C@@H]2O[C@H](CO)[C@@H](O)[C@H](O)[C@H]2NC(C)=O)C2NC(=O)C(NC(=O)C4NC(=O)C4NC(=O)C(Cc5ccc(c(Cl)c5)O3)NC(=O)C(N)c3ccc(O)c(c3)Oc3cc(O)cc4c3)c3ccc(O)c(c3)-c3c(O)cc(O)cc3C(C(=O)O)NC2=O)O[C@H](CO)[C@@H](O)[C@@H]1O` (stereo partly shown) [DM-TA2-4, de-mannosyl teicoplanin complex component 4], the M.I.C. in assay [1] is recorded as 0.063 microgram/ml; in the assay on Strep. pyogenes L49 C203 it was 0.063 microgram/ml; in assay [2], 0.063 microgram/ml; in assay [3] it was 0.063 microgram/ml; in assay [5], 32 microgram/ml; in assay [6], 64 microgram/ml. The M.I.C. in assay [7] was found to be 0.5 microgram/ml.

For `CC(=O)N[C@H]1[C@H](OC2c3ccc(c(Cl)c3)Oc3cc4cc(c3O[C@@H]3O[C@H](CO)[C@@H](O)[C@H](O)[C@H]3NC(=O)CCCCCCCC(C)C)Oc3ccc(cc3Cl)CC3NC(=O)C(N)c5ccc(O)c(c5)Oc5cc(O)cc(c5)C(NC3=O)C(=O)NC4C(=O)NC3C(=O)NC2C(=O)NC(C(=O)O)c2cc(O)cc(O)c2-c2cc3ccc2O)O[C@H](CO)[C@@H](O)[C@@H]1O` (stereo partly shown) [DM-TA2-5, de-mannosyl teicoplanin complex component 5], the M.I.C. in assay [1] amounted to 0.063 microgram/ml; in the assay with Strep. pyogenes L49 C203 it was 0.063 microgram/ml; in assay [2], 0.063 microgram/ml; in assay [3], 0.063 microgram/ml; in assay [4] it was 0.063 microgram/ml; in assay [5], 32 microgram/ml. For the same compound, the values for the M.I.C. in assay [6] and in assay [7] were 32 microgram/ml and 0.25 microgram/ml, respectively.
